Source: US20240316155A1, “COMPOSITION FOR TREATING SHORT BOWEL SYNDROME” (ZEALAND PHARMA A/S, priority 2021, published 2024)
*1 amine or outer side, *2 acyl side, *3 side chain or, on linkers, in order; H or OH if unused. Side-chain parts run from the residue outwards. [ ]: non-standard residue; d: D form. The star is where a group is joined. C18 diacid = O=C(O)CCCCCCCCCCCCCCCCC(=O)*; γGlu = O=C(O)[C@H](CCC(=O)[*:2])N[*:1]; Aib = CC(C)(N)C(=O)O

Experiments:
[1] = tested on: SBS patients; settings: cited from earlier work
[2] = tested on: SBS mice; settings: cited from earlier work
[3] = tested on: Short Bowel Syndrome (SBS) mice; assay: Short bowel syndrome (SBS) mice, ileum and cecum resection (ICR): postoperative survival, body weight, dietary intake; format: in vivo, C57BL/6J mice; settings: ICR-resected mice
Source text: (§1) Adult, male C57BL/6J mice with ˜30 g body weight of ˜4 months received a 12-cm ileum and cecum resection (ICR) with jejunocolonic anastomosis (see FIG. 1, middle). The mice were then randomly assigned to either Cpd 18 or vehicle treatment As control for the abdominal surgery, the sham group was included which had laparotomy, bowel exposure, transection and end-to-end anastomosis but no resection (see FIG. 1, bottom). To prevent intestinal obstruction, all mice were switched to liquid diet 2 days before surgery and maintained on this diet until the end of the experiment. Throughout the experiment, animals were singly housed. All mice were studied with the intention to survive to day 14.
Briefly, mice were anesthetized by i. p. injection of ketamine (100 mg/kg bw) and xylazine (15 mg/kg bw) and orally intubated and ventilated. After midline incision, the distal small bowel and the cecum were exposed and then transected 12 cm proximal to the ileocecal junction and immediately distal to the cecum. The resected bowel was removed, and the length of the specimen was measured. An end-to-end, jejunocolonic anastomosis was created and the abdomen was closed. In the sham group, laparotomy, bowel exposure, transection and end-to-end anastomosis but no resection was performed. Immediately after surgery, all mice were weighed and received 1 ml isotonic saline subcutaneously and carprofen 5 mg/kg body weight. All surgical procedures were performed by the same surgeon. Mice were kept in a heated terrarium (29° C.) for 4 h and then returned to individual cages with free access to liquid food and water. The liquid diet was provided in feeding tubes. Mice were allowed to recover for a day after surgery, and then injected once daily with 30 nmol/kg body weight of Cpd 18. […]
Mice were scored for wellbeing daily as described (Berlin et al. 2019). If the wellness score dropped to below 4 pts, or when weight loss exceeded 20%, the mouse was immediately killed and not analyzed further. […]
Body weight (FIG. 6) and food consumption (FIG. 7) was measured daily. […]

[4] = tested on: Short Bowel Syndrome (SBS) mice; assay: SBS mice (ICR): stool water content; format: in vivo, C57BL/6J mice; settings: ICR-resected mice
Source text: as §1
Briefly, mice were anesthetized by i. p. injection of ketamine (100 mg/kg bw) and xylazine (15 mg/kg bw) and orally intubated and ventilated. After midline incision, the distal small bowel and the cecum were exposed and then transected 12 cm proximal to the ileocecal junction and immediately distal to the cecum. The resected bowel was removed, and the length of the specimen was measured. An end-to-end, jejunocolonic anastomosis was created and the abdomen was closed. In the sham group, laparotomy, bowel exposure, transection and end-to-end anastomosis but no resection was performed. Immediately after surgery, all mice were weighed and received 1 ml isotonic saline subcutaneously and carprofen 5 mg/kg body weight. All surgical procedures were performed by the same surgeon. Mice were kept in a heated terrarium (29° C.) for 4 h and then returned to individual cages with free access to liquid food and water. The liquid diet was provided in feeding tubes. Mice were allowed to recover for a day after surgery, and then injected once daily with 30 nmol/kg body weight of Cpd 18. 50 mM Histidine buffer pH 6, 200 mM Mannitol served as vehicle control.
Stools were collected on selected days throughout the experiment. Stool water content was assessed by collecting stools in a pre-weighed tube, weighing, and then drying overnight at 80° C. and reweighing the dried stools. […]

[5] = tested on: Short Bowel Syndrome (SBS) mice; assay: SBS mice (ICR): visual assessment of stool consistency with reference to Bristol Stool type; format: in vivo, C57BL/6J mice
Source text: as §1
Briefly, mice were anesthetized by i. p. injection of ketamine (100 mg/kg bw) and xylazine (15 mg/kg bw) and orally intubated and ventilated. After midline incision, the distal small bowel and the cecum were exposed and then transected 12 cm proximal to the ileocecal junction and immediately distal to the cecum. The resected bowel was removed, and the length of the specimen was measured. An end-to-end, jejunocolonic anastomosis was created and the abdomen was closed. In the sham group, laparotomy, bowel exposure, transection and end-to-end anastomosis but no resection was performed. […]

| Compound | effect on diarrhea [1] | effect on treatment of diarrhea [2] | survival rate after 14 days ([3]; 30 nmol/kg once daily from day 1 after surgery, vehicle 60%, sham 90%) | postoperative relative body weight (relative to initial weight) ([3]; 30 nmol/kg once daily, compared to vehicle, up to day 14) | postoperative dietary intake ([3]; 30 nmol/kg once daily, from day 2 onwards, compared to vehicle) | stool water content ([4]; 30 nmol/kg once daily, day 14, vehicle approximately 75%, sham 50%) | stool water content compared to vehicle ([4]; 30 nmol/kg once daily, from day 7) | stool water content ([4]; after 2 days) | stool consistency, Bristol Stool type ([5]; day 5 after resection, vehicle Type 6 or 7, sham Type 3 or 4) | stool consistency, Bristol Stool type ([5]; day 14, vehicle Type 6 or 7) |
| --- | --- | --- | --- | --- | --- | --- | --- | --- | --- | --- |
| CC[C@H](C)[C@H](NC(=O)[C@H](Cc1ccccc1)NC(=O)[C@H](CC(=O)O)NC(=O)[C@H](CCCNC(=N)N)NC(=O)[C@H](C)NC(=O)[C@H](C)NC(=O)[C@H](CC(C)C)NC(=O)[C@H](CC(N)=O)NC(=O)[C@H](CC(=O)O)NC(=O)[C@H](CC(C)C)NC(=O)[C@@H](NC(=O)[C@@H](NC(=O)[C@H](CC(N)=O)NC(=O)[C@H](CCSC)NC(=O)[C@H](CCC(=O)O)NC(=O)[C@H](CC(=O)O)NC(=O)[C@H](CO)NC(=O)[C@H](Cc1ccccc1)NC(=O)[C@H](CO)NC(=O)CNC(=O)[C@H](CC(=O)O)NC(=O)CNC(=O)[C@@H](N)Cc1c[nH]cn1)[C@@H](C)O)[C@@H](C)CC)C(=O)N[C@@H](CC(N)=O)C(=O)N[C@@H](Cc1c[nH]c2ccccc12)C(=O)N[C@@H](CC(C)C)C(=O)N[C@H](C(=O)N[C@@H](CCC(N)=O)C(=O)N[C@H](C(=O)N[C@@H](CCCCN)C(=O)N[C@H](C(=O)N[C@H](C(=O)N[C@@H](CC(=O)O)C(=O)O)[C@@H](C)O)[C@@H](C)CC)[C@@H](C)O)[C@@H](C)CC [Teduglutide, [Gly2]-hGLP-2 (1-33)] | some effect | intermittent effect | – | – | – | – | – | – | – | – |
| H-H[Aib]EGSFTSELATILDK([γGlu-C18 diacid])QAARDFIAWLIQHKITD-OH [Cpd 18] | – | – | 74% | differed from the vehicle group after six days onwards by starting to increase towards the initial weight | lower | approximately 50% | significantly reduced compared to vehicle | approximately 75% | Type 4 or 5 | type 4 |
